# Test results as given in publication PMC6274539, “Photoactivatable Caged Prodrugs of VEGFR-2 Kinase Inhibitors” (Molecules, 2016).
# How the values were obtained:
# Assay in all cases: kinase profiling, radioactive filter binding assay
# Format in all cases: biochemical
# ERK2 = ERK2 (Homo sapiens, UniProt P28482); details: 0.1 µM compound, assay duplicates; read-out: residual activity of ERK2, mean percentage activity
# Procedure: (§1) The used method was a radioactive filter binding assay using ^33P ATP, for details see references. The substances were dissolved in DMSO at tested concentration of 0.1 µM. The mean percentage residual kinase activity and standard deviations of assay duplicates were determined. Analyses were performed by the International Center for Kinase Profiling at the University of Dundee, UK.
# IRR = IRR (Homo sapiens, UniProt P14616); details: 0.1 µM compound, assay duplicates; read-out: residual activity of IRR, mean percentage activity
# Procedure: as §1
# S6K1 = S6K1 (Homo sapiens, UniProt P23443); details: 0.1 µM compound, assay duplicates; read-out: residual activity of S6K1, mean percentage activity
# Procedure: as §1
# EPH-B3 = EPH-B3 (Homo sapiens, UniProt P54753); details: 0.1 µM compound, assay duplicates; read-out: residual activity of EPH-B3, mean percentage activity
# Procedure: as §1
# IKKe = IKKe (Homo sapiens, UniProt Q14164); details: 0.1 µM compound, assay duplicates; read-out: residual activity of IKKe, mean percentage activity
# IKKe, sequence (Q14164 whole entry): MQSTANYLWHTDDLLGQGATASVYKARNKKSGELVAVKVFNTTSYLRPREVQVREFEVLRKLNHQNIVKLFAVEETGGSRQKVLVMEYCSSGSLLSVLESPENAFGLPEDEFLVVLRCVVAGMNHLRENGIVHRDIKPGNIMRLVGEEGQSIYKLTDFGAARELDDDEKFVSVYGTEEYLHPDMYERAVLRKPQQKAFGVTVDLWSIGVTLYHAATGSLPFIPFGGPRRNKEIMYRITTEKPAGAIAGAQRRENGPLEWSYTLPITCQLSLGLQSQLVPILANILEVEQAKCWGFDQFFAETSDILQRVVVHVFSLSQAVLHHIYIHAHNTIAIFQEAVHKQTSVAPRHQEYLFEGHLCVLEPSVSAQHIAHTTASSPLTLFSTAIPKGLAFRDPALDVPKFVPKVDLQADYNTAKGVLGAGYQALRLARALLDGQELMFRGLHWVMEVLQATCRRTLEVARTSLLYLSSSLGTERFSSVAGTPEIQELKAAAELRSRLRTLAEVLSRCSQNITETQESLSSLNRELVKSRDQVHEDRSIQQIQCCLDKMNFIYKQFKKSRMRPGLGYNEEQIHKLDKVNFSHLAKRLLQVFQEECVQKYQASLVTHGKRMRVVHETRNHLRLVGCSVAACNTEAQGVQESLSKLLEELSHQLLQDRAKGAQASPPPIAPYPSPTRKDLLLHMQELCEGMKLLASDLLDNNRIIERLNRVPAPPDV
# Procedure: as §1
# PAK6 = PAK6 (Homo sapiens, UniProt Q9NQU5); details: 0.1 µM compound, assay duplicates; read-out: residual activity of PAK6, mean percentage activity
# PAK6, sequence (Q9NQU5 whole entry): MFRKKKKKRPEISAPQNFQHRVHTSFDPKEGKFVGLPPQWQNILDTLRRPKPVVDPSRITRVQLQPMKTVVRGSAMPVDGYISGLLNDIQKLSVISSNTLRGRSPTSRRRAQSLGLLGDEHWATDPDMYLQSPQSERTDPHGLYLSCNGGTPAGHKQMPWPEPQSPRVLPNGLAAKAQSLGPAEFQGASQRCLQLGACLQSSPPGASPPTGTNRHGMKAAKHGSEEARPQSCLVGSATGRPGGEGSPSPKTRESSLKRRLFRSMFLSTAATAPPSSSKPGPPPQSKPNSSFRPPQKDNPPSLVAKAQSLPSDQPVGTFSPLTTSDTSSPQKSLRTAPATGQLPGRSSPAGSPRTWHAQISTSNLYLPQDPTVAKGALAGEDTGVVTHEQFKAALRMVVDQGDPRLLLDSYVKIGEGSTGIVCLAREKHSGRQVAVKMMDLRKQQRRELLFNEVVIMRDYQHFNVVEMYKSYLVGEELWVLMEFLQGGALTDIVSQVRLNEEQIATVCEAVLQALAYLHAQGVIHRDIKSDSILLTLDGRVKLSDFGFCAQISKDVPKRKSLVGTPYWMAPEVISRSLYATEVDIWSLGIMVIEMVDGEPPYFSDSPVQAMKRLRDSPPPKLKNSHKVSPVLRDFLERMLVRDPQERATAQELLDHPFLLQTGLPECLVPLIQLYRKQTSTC
# Procedure: as §1
# PRK2 = PRK2 (Homo sapiens, UniProt Q16513); details: 0.1 µM compound, assay duplicates; read-out: residual activity of PRK2, mean percentage activity
# Procedure: as §1
# Lck = Lck (Homo sapiens, UniProt P06239); details: 0.1 µM compound, assay duplicates; read-out: residual activity of Lck, mean percentage activity
# Lck, sequence (P06239 whole entry): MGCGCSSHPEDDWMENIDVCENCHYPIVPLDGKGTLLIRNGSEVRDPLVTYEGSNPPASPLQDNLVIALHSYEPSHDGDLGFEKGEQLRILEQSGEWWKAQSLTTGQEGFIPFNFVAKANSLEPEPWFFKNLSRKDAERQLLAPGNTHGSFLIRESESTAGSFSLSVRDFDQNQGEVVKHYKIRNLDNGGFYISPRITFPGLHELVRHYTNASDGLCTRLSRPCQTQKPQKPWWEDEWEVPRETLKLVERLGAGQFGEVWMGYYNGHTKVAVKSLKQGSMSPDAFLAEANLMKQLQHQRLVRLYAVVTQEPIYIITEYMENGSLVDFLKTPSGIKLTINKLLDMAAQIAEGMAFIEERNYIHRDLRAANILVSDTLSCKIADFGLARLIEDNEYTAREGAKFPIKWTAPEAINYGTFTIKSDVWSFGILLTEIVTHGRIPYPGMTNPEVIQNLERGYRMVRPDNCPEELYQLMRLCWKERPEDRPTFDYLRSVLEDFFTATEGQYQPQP
# Procedure: as §1
# IKK epsilon (14231) = IKK epsilon (14231) (Homo sapiens, UniProt Q14164); details: 0.1 µM compound, assay duplicates; read-out: residual activity of IKK epsilon (14231), mean percentage activity
# IKK epsilon (14231), sequence (Q14164 whole entry): as the sequence (Q14164 whole entry) above
# Procedure: as §1
# MAPKAP-K2 = MAPKAP-K2 (Homo sapiens, UniProt P49137); details: 0.1 µM compound, assay duplicates; read-out: residual activity of MAPKAP-K2, mean percentage activity
# Procedure: as §1
# PIM3 = PIM3 (Homo sapiens, UniProt Q86V86); details: 0.1 µM compound, assay duplicates; read-out: residual activity of PIM3, mean percentage activity
# Procedure: as §1
# CDK2-Cyclin A = CDK2-Cyclin A (Homo sapiens, UniProt P24941); details: 0.1 µM compound, assay duplicates; read-out: residual activity of CDK2-Cyclin A, mean percentage activity
# Procedure: as §1
# AMPK = details: 0.1 µM compound, assay duplicates
# Procedure: as §1
# PKCa = PKCa (Homo sapiens, UniProt P17252); details: 0.1 µM compound, assay duplicates; read-out: residual activity of PKCa, mean percentage activity
# Procedure: as §1
# ERK8 = ERK8 (Homo sapiens, UniProt Q8TD08); details: 0.1 µM compound, assay duplicates; read-out: residual activity of ERK8, mean percentage activity
# ERK8, sequence (Q8TD08 whole entry): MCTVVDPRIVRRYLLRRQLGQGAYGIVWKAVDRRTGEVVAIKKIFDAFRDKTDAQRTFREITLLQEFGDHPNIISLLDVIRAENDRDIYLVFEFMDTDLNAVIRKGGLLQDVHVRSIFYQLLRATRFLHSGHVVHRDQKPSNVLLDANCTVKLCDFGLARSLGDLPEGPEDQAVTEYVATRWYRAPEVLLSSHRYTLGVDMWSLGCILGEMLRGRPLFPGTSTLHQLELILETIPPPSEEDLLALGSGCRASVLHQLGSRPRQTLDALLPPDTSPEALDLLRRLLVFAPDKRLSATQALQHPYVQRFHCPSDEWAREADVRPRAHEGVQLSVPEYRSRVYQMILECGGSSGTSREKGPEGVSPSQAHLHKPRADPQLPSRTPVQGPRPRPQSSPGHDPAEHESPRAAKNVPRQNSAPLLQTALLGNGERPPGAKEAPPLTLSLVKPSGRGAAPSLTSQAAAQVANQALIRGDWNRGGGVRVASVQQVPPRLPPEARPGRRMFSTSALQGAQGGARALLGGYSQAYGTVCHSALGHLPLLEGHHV
# Procedure: as §1
# BTK = BTK (Homo sapiens, UniProt Q06187); details: 0.1 µM compound, assay duplicates; read-out: residual activity of BTK, mean percentage activity
# Procedure: as §1
# PKD1 = PKD1 (Homo sapiens, UniProt Q15139); details: 0.1 µM compound, assay duplicates; read-out: residual activity of PKD1, mean percentage activity
# Procedure: as §1
# SRPK1 = SRPK1 (Homo sapiens, UniProt Q96SB4); details: 0.1 µM compound, assay duplicates; read-out: residual activity of SRPK1, mean percentage activity
# Procedure: as §1
# DYRK2 = DYRK2 (Homo sapiens, UniProt Q92630); details: 0.1 µM compound, assay duplicates; read-out: residual activity of DYRK2, mean percentage activity
# Procedure: as §1
# PKBa = PKBa (Homo sapiens, UniProt P31749); details: 0.1 µM compound, assay duplicates; read-out: residual activity of PKBa, mean percentage activity
# Procedure: as §1
# NEK2a = NEK2a (Homo sapiens, UniProt P51955); details: 0.1 µM compound, assay duplicates; read-out: residual activity of NEK2a, mean percentage activity
# Procedure: as §1
# NEK6 = NEK6 (Homo sapiens, UniProt Q9HC98); details: 0.1 µM compound, assay duplicates; read-out: residual activity of NEK6, mean percentage activity
# Procedure: as §1
# CAMKKb = CAMKKb (Homo sapiens, UniProt Q96RR4); details: 0.1 µM compound, assay duplicates; read-out: residual activity of CAMKKb, mean percentage activity
# Procedure: as §1
# ROCK 2 = ROCK 2 (Homo sapiens, UniProt O75116); details: 0.1 µM compound, assay duplicates; read-out: residual activity of ROCK 2, mean percentage activity
# ROCK 2, sequence (O75116 whole entry): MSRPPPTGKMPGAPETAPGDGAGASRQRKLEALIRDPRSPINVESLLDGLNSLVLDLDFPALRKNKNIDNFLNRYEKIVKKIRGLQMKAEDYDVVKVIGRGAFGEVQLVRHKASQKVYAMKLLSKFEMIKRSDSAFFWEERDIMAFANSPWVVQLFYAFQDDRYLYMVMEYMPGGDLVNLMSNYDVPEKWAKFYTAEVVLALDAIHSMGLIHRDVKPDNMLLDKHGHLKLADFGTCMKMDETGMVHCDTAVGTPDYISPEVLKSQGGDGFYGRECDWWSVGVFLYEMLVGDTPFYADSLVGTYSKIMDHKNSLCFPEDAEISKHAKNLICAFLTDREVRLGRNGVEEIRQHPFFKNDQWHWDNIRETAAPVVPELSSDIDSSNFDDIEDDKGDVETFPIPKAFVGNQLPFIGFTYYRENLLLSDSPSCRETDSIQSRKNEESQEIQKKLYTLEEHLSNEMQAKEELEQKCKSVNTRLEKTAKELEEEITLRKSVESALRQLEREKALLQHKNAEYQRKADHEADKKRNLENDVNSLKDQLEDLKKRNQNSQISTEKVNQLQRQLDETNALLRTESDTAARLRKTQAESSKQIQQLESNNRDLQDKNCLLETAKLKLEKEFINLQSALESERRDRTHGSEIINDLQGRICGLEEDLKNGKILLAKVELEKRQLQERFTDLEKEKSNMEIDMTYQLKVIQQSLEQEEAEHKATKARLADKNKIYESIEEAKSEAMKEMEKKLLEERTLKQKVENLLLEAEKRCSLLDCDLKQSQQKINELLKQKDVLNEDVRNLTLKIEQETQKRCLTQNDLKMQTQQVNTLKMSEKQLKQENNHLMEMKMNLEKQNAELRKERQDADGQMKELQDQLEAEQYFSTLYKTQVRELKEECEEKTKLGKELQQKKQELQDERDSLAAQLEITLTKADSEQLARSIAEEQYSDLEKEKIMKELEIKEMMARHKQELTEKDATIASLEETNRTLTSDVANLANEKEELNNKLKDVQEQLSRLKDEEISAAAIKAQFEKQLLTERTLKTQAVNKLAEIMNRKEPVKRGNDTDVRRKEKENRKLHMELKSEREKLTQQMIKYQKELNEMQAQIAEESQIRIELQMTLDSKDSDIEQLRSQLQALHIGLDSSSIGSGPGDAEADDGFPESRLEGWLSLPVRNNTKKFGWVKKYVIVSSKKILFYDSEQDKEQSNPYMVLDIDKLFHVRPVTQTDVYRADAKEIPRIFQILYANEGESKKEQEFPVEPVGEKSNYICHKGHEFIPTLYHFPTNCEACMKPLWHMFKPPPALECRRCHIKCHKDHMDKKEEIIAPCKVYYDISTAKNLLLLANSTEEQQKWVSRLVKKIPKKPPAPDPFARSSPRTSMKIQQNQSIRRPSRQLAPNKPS
# Procedure: as §1
# PAK5 = PAK5 (Homo sapiens, UniProt Q9P286); details: 0.1 µM compound, assay duplicates; read-out: residual activity of PAK5, mean percentage activity
# PAK5, sequence (Q9P286 whole entry): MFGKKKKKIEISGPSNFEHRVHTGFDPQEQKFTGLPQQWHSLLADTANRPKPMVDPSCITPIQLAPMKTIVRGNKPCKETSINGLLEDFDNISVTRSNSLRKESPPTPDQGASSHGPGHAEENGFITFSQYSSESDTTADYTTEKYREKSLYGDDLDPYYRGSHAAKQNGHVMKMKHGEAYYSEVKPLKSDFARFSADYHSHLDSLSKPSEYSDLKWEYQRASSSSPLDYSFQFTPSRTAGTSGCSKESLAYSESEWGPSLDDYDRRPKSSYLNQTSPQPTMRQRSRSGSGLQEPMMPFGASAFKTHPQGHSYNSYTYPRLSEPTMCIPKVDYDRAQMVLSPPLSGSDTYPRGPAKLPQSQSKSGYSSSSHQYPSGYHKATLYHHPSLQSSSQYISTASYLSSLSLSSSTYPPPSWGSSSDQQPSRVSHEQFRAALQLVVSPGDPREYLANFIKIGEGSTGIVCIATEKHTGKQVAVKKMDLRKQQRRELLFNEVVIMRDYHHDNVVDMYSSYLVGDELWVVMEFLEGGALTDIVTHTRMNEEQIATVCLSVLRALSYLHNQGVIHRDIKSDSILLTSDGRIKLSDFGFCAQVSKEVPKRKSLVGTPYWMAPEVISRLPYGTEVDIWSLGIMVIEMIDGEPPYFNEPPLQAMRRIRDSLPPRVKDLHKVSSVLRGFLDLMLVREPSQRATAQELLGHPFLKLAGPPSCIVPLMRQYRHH
# Procedure: as §1
# MELK = MELK (Homo sapiens, UniProt Q14680); details: 0.1 µM compound, assay duplicates; read-out: residual activity of MELK, mean percentage activity
# Procedure: as §1
# PIM2 = PIM2 (Homo sapiens, UniProt Q9P1W9); details: 0.1 µM compound, assay duplicates; read-out: residual activity of PIM2, mean percentage activity
# Procedure: as §1
# SGK1 = SGK1 (Homo sapiens, UniProt O00141); details: 0.1 µM compound, assay duplicates; read-out: residual activity of SGK1, mean percentage activity
# Procedure: as §1
Compound,remaining activity at 0.1 µM (ERK2) [%],remaining activity at 0.1 µM (IRR) [%],remaining activity at 0.1 µM (S6K1) [%],remaining activity at 0.1 µM (EPH-B3) [%],remaining activity at 0.1 µM (IKKe) [%],remaining activity at 0.1 µM (PAK6) [%],remaining activity at 0.1 µM (PRK2) [%],remaining activity at 0.1 µM (Lck) [%],remaining activity at 0.1 µM (IKK epsilon (14231)) [%],remaining activity at 0.1 µM (MAPKAP-K2) [%],remaining activity at 0.1 µM (PIM3) [%],remaining activity at 0.1 µM (CDK2-Cyclin A) [%],"residual activity of AMPK, mean percentage activity (AMPK) [%]",remaining activity at 0.1 µM (PKCa) [%],remaining activity at 0.1 µM (ERK8) [%],remaining activity at 0.1 µM (BTK) [%],remaining activity at 0.1 µM (PKD1) [%],remaining activity at 0.1 µM (SRPK1) [%],remaining activity at 0.1 µM (DYRK2) [%],remaining activity at 0.1 µM (PKBa) [%],other results
"COc1cc(C2=C(c3c[nH]c4ccccc34)C(=O)NC2=O)cc(OC)c1OC [Compound 1, 3-(1H-Indol-3-yl)-4-(3,4,5-trimethoxyphenyl)-1H-pyrrole-2,5-dione]",94,58,65,104,80,97,84,91,85,94,5,59,78,113,46,93,100,85,57,66,remaining activity at 0.1 µM (NEK2a): 87%; remaining activity at 0.1 µM (NEK6): 96%; remaining activity at 0.1 µM (CAMKKb): 81%; remaining activity at 0.1 µM (ROCK 2): 97%; remaining activity at 0.1 µM (PAK5): 105%; remaining activity at 0.1 µM (MELK): 74%; remaining activity at 0.1 µM (PIM2): 115%; remaining activity at 0.1 µM (SGK1): 75%
"COc1cc2c3c(c4c5ccccc5[nH]c4c2c(OC)c1OC)C(=O)NC3=O [Compound 3, 5,6,7-Trimethoxybenzo[a]pyrrolo[3,4-c]carbazole-1,3(2H,8H)-dione]",93,41,28,133,63,99,52,91,94,95,4,28,75,90,11,90,60,83,17,81,remaining activity at 0.1 µM (NEK2a): 91%; remaining activity at 0.1 µM (NEK6): 104%; remaining activity at 0.1 µM (CAMKKb): 49%; remaining activity at 0.1 µM (ROCK 2): 88%; remaining activity at 0.1 µM (PAK5): 84%; remaining activity at 0.1 µM (MELK): 55%; remaining activity at 0.1 µM (PIM2): 115%; remaining activity at 0.1 µM (SGK1): 52%
